PubChem BioAssay (NCI)
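48-hour exposure; five concentrations; linearly interpolated endpoints. Definition used: TGI = concentration required for complete inhibition of growth.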 Where a SMILES comes first, the peptide text is derived from it. [ ]: non-standard residue; d: D form. The star is where a group is joined. NMeF = CN[CH](Cc1ccccc1)C(=O)O; NMeV = CN[CH](C(=O)O)C(C)C; Boc = CC(C)(C)OC(=O)*; OBn = c1ccc(CO*)cc1

Columns and labels:
Assay in all cases: DTP human tumour cell line panel, 48 h
LXFL 529 NSCLC = tested on: LXFL 529 NSCLC
SF-539 CNS = tested on: SF-539 CNS
MOLT-4 leukemia = tested on: MOLT-4 leukemia
SF-268 CNS = tested on: SF-268 CNS
EKVX NSCLC = tested on: EKVX NSCLC
SNB-78 CNS = tested on: SNB-78 CNS
KM20L2 colon = tested on: KM20L2 colon
SN12C renal = tested on: SN12C renal
IGROV1 ovarian = tested on: IGROV1 ovarian
CAKI-1 renal = tested on: CAKI-1 renal
SR leukemia = tested on: SR leukemia
COLO 205 colon = tested on: COLO 205 colon
UACC-257 melanoma = tested on: UACC-257 melanoma
HCT-116 colon = tested on: HCT-116 colon
SNB-19 CNS = tested on: SNB-19 CNS
M14 melanoma = tested on: M14 melanoma
UO-31 renal = tested on: UO-31 renal
SNB-75 CNS = tested on: SNB-75 CNS
A498 renal = tested on: A498 renal
OVCAR-8 ovarian = tested on: OVCAR-8 ovarian
U251 CNS = tested on: U251 CNS
HOP-18 NSCLC = tested on: HOP-18 NSCLC
ACHN renal = tested on: ACHN renal
NCI-H460 lung = tested on: NCI-H460 lung
HOP-62 NSCLC = tested on: HOP-62 NSCLC
M19-MEL melanoma = tested on: M19-MEL melanoma
OVCAR-5 ovarian = tested on: OVCAR-5 ovarian
UACC-62 melanoma = tested on: UACC-62 melanoma
SK-MEL-2 melanoma = tested on: SK-MEL-2 melanoma
SW-620 colon = tested on: SW-620 colon
K-562 leukemia = tested on: K-562 leukemia
MALME-3M melanoma = tested on: MALME-3M melanoma
NCI-H23 lung = tested on: NCI-H23 lung
HL-60(TB) leukemia = tested on: HL-60(TB) leukemia
A549 NSCLC = tested on: A549 NSCLC
SF-295 CNS = tested on: SF-295 CNS
LOX IMVI melanoma = tested on: LOX IMVI melanoma
KM12 colon = tested on: KM12 colon
HT29 colon = tested on: HT29 colon
SK-MEL-28 melanoma = tested on: SK-MEL-28 melanoma
NCI-H226 lung = tested on: NCI-H226 lung
DLD-1 colon = tested on: DLD-1 colon
OVCAR-4 ovarian = tested on: OVCAR-4 ovarian
CCRF-CEM leukemia = tested on: CCRF-CEM leukemia
HCC-2998 colon = tested on: HCC-2998 colon
SK-OV-3 ovarian = tested on: SK-OV-3 ovarian
DMS 114 small cell lung = tested on: DMS 114 small cell lung
NCI-H522 lung = tested on: NCI-H522 lung
RPMI-8226 leukemia = tested on: RPMI-8226 leukemia
OVCAR-3 ovarian = tested on: OVCAR-3 ovarian
TK-10 renal = tested on: TK-10 renal
HOP-92 NSCLC = tested on: HOP-92 NSCLC
HCT-15 colon = tested on: HCT-15 colon
786-0 renal = tested on: 786-0 renal
SK-MEL-5 melanoma = tested on: SK-MEL-5 melanoma
DMS 273 small cell lung = tested on: DMS 273 small cell lung
RXF 393 renal = tested on: RXF 393 renal
XF 498 CNS = tested on: XF 498 CNS

Measured: TGI

Cc1ccc(NC(=O)c2cccc([N+](=O)[O-])c2O)c(C)c1
63.5 µM: A498 renal
74.3 µM: SF-295 CNS
79.8 µM: CAKI-1 renal
63.8 µM: A549 NSCLC
70.1 µM: NCI-H522 lung
35.1 µM: UO-31 renal
55.6 µM: HL-60(TB) leukemia
66.2 µM: UACC-257 melanoma
6.44 µM: HOP-18 NSCLC
98.6 µM: EKVX NSCLC
> 100 µM: LXFL 529 NSCLC | MOLT-4 leukemia | SF-268 CNS | SNB-78 CNS | KM20L2 colon | SN12C renal | IGROV1 ovarian | SR leukemia | COLO 205 colon | HCT-116 colon | SNB-19 CNS | M14 melanoma | SNB-75 CNS | OVCAR-8 ovarian | U251 CNS | NCI-H460 lung | HOP-62 NSCLC | M19-MEL melanoma | OVCAR-5 ovarian | UACC-62 melanoma | SK-MEL-2 melanoma | SW-620 colon | K-562 leukemia | NCI-H23 lung | LOX IMVI melanoma | KM12 colon | HT29 colon | SK-MEL-28 melanoma | NCI-H226 lung | DLD-1 colon | OVCAR-4 ovarian | CCRF-CEM leukemia | HCC-2998 colon | SK-OV-3 ovarian | DMS 114 small cell lung | OVCAR-3 ovarian
17.9 µM: MALME-3M melanoma
89.5 µM: ACHN renal
89.6 µM: SF-539 CNS
92.7 µM: RPMI-8226 leukemia

Cn1cc2ccccc2c1-c1nc(F)nc(Oc2ccc3c(c2)CC[C@@H]2C3CC[C@]3(C)C(O)CCC23)n1 (stereo partly drawn)
36.3 µM: UACC-257 melanoma | SK-OV-3 ovarian
33.3 µM: OVCAR-5 ovarian
36.4 µM: HCC-2998 colon
36 µM: OVCAR-8 ovarian
63.6 µM: UO-31 renal
33.2 µM: SK-MEL-28 melanoma
36.5 µM: CCRF-CEM leukemia
33 µM: HOP-62 NSCLC
34.7 µM: SNB-19 CNS
35.1 µM: SF-268 CNS
30.1 µM: M14 melanoma
47.8 µM: M19-MEL melanoma
28 µM: U251 CNS
32.7 µM: SF-539 CNS
48.9 µM: A549 NSCLC
65.7 µM: MOLT-4 leukemia
30.9 µM: DLD-1 colon
33.4 µM: HCT-15 colon
30.2 µM: SK-MEL-5 melanoma | SF-295 CNS
44.2 µM: COLO 205 colon
72.3 µM: RXF 393 renal
33.8 µM: SN12C renal
28.6 µM: SNB-75 CNS
39.9 µM: MALME-3M melanoma
31.8 µM: OVCAR-3 ovarian
35.7 µM: HOP-18 NSCLC
35.8 µM: HCT-116 colon
36.9 µM: KM20L2 colon | LOX IMVI melanoma
44.3 µM: HOP-92 NSCLC
34.1 µM: ACHN renal
26 µM: NCI-H522 lung
28.5 µM: OVCAR-4 ovarian
43.5 µM: SW-620 colon
43.2 µM: DMS 273 small cell lung
31.6 µM: LXFL 529 NSCLC
31.7 µM: TK-10 renal
> 100 µM: K-562 leukemia | NCI-H226 lung
30.8 µM: IGROV1 ovarian
36.1 µM: SNB-78 CNS | SK-MEL-2 melanoma
30.5 µM: 786-0 renal
37.8 µM: DMS 114 small cell lung

CC1(C)CCc2cc3c(cc2O1)OC(C)(C)C1c2c(ccc4c2CCC(C)(C)O4)OC31 (stereo not drawn)
> 100 µM: LXFL 529 NSCLC | SF-539 CNS | MOLT-4 leukemia | SF-268 CNS | EKVX NSCLC | SNB-78 CNS | SN12C renal | IGROV1 ovarian | CAKI-1 renal | SR leukemia | COLO 205 colon | HCT-116 colon | HOP-92 NSCLC | HCT-15 colon | M14 melanoma | 786-0 renal | UO-31 renal | SK-MEL-5 melanoma | OVCAR-8 ovarian | U251 CNS | ACHN renal | NCI-H460 lung | DMS 273 small cell lung | HOP-62 NSCLC | M19-MEL melanoma | OVCAR-5 ovarian | UACC-62 melanoma | SK-MEL-2 melanoma | SW-620 colon | K-562 leukemia | NCI-H23 lung | HL-60(TB) leukemia | A549 NSCLC | SF-295 CNS | XF 498 CNS | LOX IMVI melanoma | KM12 colon | HT29 colon | NCI-H226 lung | DLD-1 colon | OVCAR-4 ovarian | CCRF-CEM leukemia | SK-OV-3 ovarian | DMS 114 small cell lung | NCI-H522 lung | RPMI-8226 leukemia | OVCAR-3 ovarian

CC(C)C(NC(=O)OC(C)(C)C)C(=O)N(C)C(Cc1ccccc1)C(=O)N(C)C(C(=O)N(C)C(C(=O)OCc1ccccc1)C(C)C)C(C)C (stereo not drawn) (Boc-V[NMeF][NMeV][NMeV]-OBn; configuration not given here)
82.4 µM: XF 498 CNS
> 100 µM: LXFL 529 NSCLC | SF-539 CNS | MOLT-4 leukemia | SF-268 CNS | EKVX NSCLC | TK-10 renal | KM20L2 colon | SN12C renal | IGROV1 ovarian | SR leukemia | COLO 205 colon | UACC-257 melanoma | HCT-116 colon | SNB-19 CNS | HCT-15 colon | M14 melanoma | 786-0 renal | UO-31 renal | SK-MEL-5 melanoma | OVCAR-8 ovarian | U251 CNS | ACHN renal | NCI-H460 lung | DMS 273 small cell lung | HOP-62 NSCLC | M19-MEL melanoma | UACC-62 melanoma | SW-620 colon | K-562 leukemia | MALME-3M melanoma | NCI-H23 lung | HL-60(TB) leukemia | A549 NSCLC | SF-295 CNS | LOX IMVI melanoma | KM12 colon | HT29 colon | NCI-H226 lung | CCRF-CEM leukemia | HCC-2998 colon | DMS 114 small cell lung | NCI-H522 lung | RPMI-8226 leukemia | OVCAR-3 ovarian
